Measurements as given in paper PMC10176470, “Engaging a Non-catalytic Cysteine Residue Drives Potent and Selective Inhibition of Caspase-6” (Journal of the American Chemical Society, 2023).

Tests used:
Type in all cases: cell-based
[1] = target: proteins of HEK293T cells transiently overexpressing caspase-6 (Homo sapiens, UniProt P60174); conditions: exp_ref Probe; protein TPI1 (P60174); analysis C6
[2] = target: proteins of HEK293T cells transiently overexpressing caspase-6 (Homo sapiens, UniProt Q04917); conditions: Probe; protein YWHAH Q04917
Chain of proteins of HEK293T cells transiently overexpressing caspase-6 (Homo sapiens, UniProt Q04917) (Q04917 whole entry): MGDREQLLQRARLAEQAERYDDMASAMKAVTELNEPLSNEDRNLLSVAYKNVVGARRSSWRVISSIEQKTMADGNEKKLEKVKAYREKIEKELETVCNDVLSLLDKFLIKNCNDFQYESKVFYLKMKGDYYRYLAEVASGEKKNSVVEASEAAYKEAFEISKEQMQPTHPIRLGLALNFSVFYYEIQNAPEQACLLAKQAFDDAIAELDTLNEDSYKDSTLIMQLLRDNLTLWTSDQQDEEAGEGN

[3] = target: proteins of HEK293T cells transiently overexpressing caspase-6 (Homo sapiens, UniProt Q96AG4); conditions: protein LRRC59 (Q96AG4); exp_ref Probe; analysis C6
Chain of proteins of HEK293T cells transiently overexpressing caspase-6 (Homo sapiens, UniProt Q96AG4) (Q96AG4 whole entry): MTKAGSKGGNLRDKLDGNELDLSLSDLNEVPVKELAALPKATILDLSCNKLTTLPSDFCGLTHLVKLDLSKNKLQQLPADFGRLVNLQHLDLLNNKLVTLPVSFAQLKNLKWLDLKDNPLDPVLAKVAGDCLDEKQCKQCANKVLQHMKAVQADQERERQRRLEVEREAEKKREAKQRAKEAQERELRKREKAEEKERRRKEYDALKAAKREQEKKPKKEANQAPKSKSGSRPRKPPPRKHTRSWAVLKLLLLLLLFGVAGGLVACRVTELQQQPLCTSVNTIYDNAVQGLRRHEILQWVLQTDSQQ

[4] = target: proteins of HEK293T cells transiently overexpressing caspase-6 (Homo sapiens, UniProt P62633); conditions: exp_ref Probe; protein CNBP (P62633); analysis C6
Chain of proteins of HEK293T cells transiently overexpressing caspase-6 (Homo sapiens, UniProt P62633) (P62633 whole entry): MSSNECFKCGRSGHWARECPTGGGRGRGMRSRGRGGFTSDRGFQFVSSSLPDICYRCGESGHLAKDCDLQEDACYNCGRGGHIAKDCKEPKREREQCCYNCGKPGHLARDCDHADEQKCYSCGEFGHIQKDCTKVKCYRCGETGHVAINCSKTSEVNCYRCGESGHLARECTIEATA

[5] = target: proteins of HEK293T cells transiently overexpressing caspase-6 (Homo sapiens, UniProt Q14974); conditions: protein KPNB1 (Q14974)
Chain of proteins of HEK293T cells transiently overexpressing caspase-6 (Homo sapiens, UniProt Q14974) (Q14974 whole entry): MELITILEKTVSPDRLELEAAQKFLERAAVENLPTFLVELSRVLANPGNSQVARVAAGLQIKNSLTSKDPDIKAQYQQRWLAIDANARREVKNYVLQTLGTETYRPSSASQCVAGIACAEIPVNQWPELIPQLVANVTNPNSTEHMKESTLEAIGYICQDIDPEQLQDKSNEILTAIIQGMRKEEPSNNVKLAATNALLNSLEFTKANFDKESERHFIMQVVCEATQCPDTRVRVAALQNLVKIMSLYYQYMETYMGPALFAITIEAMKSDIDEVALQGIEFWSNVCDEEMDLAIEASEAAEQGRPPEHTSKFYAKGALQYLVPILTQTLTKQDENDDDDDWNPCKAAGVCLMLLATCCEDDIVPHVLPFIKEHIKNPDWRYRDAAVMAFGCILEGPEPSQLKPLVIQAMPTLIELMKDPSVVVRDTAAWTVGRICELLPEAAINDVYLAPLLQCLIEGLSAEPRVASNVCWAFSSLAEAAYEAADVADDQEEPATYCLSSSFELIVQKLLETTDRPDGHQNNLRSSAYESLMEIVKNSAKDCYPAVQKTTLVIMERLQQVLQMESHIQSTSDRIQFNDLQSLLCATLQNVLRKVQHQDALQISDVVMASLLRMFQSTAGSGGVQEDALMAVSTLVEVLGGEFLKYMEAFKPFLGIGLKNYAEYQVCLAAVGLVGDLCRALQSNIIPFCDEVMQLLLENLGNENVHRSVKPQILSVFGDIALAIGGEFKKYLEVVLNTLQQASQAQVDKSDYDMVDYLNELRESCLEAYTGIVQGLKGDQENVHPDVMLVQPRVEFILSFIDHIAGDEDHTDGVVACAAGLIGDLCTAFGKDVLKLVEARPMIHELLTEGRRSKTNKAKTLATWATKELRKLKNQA

[6] = target: T1, proteins of HEK293T cells transiently overexpressing caspase-6 (Homo sapiens, UniProt Q14697); conditions: protein GANAB (Q14697)
T1 sequence (Q14697 29-944): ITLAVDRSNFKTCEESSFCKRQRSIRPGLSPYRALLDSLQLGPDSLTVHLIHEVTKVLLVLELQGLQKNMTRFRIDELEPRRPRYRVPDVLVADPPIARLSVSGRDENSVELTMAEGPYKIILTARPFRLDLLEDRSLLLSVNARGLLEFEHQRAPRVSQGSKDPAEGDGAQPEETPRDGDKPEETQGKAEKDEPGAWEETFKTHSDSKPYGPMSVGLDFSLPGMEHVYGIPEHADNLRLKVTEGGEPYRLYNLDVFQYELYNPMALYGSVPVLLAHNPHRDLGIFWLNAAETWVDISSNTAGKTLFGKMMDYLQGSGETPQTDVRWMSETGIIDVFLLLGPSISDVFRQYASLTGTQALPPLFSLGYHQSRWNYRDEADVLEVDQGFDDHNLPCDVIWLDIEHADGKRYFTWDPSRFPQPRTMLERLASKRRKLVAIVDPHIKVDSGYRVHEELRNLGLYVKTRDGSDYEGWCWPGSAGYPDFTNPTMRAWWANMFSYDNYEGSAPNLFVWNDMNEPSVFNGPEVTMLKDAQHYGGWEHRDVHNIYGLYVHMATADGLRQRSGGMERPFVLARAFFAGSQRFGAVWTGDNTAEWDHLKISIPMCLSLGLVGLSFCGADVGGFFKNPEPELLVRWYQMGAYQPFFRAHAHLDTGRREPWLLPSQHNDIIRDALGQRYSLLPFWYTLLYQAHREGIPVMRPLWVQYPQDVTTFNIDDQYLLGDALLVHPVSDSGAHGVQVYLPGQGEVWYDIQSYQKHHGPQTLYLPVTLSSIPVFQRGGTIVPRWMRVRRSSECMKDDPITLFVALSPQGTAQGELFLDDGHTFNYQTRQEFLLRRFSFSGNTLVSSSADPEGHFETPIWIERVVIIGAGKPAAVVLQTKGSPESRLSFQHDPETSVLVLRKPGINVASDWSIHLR

[7] = target: T2, proteins of HEK293T cells transiently overexpressing caspase-6 (Homo sapiens, UniProt O00567); conditions: exp_ref Probe; protein NOP56 (O00567); analysis C6
T2 sequence (O00567 1-594): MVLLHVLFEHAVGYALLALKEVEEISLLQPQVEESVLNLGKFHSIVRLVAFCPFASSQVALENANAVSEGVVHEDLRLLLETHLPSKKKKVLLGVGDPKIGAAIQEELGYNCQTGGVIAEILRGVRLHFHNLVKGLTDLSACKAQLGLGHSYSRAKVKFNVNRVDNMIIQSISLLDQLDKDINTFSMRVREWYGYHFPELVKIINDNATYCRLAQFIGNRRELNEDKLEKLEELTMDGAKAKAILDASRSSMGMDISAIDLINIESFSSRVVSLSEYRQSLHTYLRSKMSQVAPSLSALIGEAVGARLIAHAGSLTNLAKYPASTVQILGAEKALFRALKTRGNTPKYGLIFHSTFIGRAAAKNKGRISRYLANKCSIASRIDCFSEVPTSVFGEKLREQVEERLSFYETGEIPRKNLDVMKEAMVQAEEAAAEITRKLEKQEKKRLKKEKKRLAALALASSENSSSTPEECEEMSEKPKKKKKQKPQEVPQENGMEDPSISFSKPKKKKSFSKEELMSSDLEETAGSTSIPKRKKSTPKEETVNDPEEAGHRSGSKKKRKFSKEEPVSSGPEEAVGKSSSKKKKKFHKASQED

[8] = target: T3, proteins of HEK293T cells transiently overexpressing caspase-6 (Homo sapiens, UniProt P22234); conditions: protein PAICS (P22234)
T3 sequence (P22234 1-425): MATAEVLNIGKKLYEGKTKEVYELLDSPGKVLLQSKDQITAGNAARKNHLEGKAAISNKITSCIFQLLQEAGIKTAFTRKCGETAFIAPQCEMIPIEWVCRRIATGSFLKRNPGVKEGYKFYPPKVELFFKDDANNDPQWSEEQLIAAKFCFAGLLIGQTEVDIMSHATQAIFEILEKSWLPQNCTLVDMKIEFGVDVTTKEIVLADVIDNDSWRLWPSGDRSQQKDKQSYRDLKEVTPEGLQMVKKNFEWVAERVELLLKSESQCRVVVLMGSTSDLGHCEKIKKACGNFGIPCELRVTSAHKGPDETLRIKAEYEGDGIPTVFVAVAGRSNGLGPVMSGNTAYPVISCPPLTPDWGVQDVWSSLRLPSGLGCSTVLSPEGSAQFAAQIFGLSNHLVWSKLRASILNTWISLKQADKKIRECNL

[9] = target: proteins of HEK293T cells transiently overexpressing caspase-6 (Homo sapiens, UniProt O75643); conditions: exp_ref Probe; protein SNRNP200 (O75643); analysis C6
Chain of proteins of HEK293T cells transiently overexpressing caspase-6 (Homo sapiens, UniProt O75643) (O75643 whole entry): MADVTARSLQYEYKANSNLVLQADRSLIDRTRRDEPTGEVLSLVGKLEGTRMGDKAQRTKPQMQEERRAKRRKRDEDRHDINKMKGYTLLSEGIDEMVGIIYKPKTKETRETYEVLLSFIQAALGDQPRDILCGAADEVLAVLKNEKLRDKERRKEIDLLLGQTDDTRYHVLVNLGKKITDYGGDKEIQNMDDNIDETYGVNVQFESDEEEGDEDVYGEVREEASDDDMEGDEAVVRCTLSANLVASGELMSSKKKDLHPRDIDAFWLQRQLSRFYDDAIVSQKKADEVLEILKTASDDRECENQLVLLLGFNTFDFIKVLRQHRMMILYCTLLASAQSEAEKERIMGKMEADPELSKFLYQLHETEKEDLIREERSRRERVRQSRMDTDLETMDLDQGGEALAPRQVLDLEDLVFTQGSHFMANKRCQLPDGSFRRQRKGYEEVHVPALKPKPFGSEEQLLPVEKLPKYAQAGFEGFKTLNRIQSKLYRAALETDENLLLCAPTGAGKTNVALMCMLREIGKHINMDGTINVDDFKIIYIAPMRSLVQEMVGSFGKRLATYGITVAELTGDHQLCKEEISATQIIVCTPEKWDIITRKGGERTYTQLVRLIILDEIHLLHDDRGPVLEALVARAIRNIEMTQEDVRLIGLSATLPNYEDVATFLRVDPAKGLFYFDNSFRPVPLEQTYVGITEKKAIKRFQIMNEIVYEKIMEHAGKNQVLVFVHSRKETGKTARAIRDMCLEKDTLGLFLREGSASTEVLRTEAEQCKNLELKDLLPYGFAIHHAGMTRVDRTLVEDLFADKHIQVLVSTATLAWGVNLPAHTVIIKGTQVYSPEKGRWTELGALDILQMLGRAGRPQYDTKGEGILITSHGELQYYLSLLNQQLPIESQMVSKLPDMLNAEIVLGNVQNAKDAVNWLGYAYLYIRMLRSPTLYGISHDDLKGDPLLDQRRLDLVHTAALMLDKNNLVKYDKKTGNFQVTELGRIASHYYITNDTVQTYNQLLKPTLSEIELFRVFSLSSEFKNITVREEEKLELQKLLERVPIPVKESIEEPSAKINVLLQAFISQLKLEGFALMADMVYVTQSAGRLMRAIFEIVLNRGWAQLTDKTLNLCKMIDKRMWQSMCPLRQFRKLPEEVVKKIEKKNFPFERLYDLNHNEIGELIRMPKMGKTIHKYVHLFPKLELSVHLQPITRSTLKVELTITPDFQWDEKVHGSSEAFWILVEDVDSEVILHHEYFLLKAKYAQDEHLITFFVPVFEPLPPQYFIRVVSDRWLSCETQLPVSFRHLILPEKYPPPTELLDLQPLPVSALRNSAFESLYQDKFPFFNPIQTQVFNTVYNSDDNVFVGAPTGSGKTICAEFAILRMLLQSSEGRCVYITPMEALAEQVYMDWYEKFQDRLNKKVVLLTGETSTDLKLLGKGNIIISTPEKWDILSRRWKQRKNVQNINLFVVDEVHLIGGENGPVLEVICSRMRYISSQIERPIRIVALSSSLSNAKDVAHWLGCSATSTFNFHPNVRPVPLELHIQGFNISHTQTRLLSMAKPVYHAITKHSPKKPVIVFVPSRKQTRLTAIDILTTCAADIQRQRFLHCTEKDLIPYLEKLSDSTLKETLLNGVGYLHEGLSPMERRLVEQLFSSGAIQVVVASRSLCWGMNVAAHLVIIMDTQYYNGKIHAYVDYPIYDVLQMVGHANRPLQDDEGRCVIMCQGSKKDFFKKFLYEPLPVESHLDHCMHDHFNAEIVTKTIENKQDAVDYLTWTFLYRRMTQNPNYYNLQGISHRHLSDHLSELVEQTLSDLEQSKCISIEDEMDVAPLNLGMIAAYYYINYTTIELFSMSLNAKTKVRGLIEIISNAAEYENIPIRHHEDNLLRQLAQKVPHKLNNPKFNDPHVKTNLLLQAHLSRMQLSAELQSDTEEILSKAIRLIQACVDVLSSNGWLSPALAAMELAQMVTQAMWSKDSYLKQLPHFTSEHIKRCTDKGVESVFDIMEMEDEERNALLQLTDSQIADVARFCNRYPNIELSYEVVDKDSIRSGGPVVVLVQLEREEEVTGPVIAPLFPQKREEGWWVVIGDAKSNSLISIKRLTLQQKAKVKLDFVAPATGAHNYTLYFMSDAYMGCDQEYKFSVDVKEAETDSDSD

[10] = target: proteins of HEK293T cells transiently overexpressing caspase-6 (Homo sapiens, UniProt Q02790); conditions: exp_ref Probe; protein FKBP4 (Q02790); analysis C6
Chain of proteins of HEK293T cells transiently overexpressing caspase-6 (Homo sapiens, UniProt Q02790) (Q02790 whole entry): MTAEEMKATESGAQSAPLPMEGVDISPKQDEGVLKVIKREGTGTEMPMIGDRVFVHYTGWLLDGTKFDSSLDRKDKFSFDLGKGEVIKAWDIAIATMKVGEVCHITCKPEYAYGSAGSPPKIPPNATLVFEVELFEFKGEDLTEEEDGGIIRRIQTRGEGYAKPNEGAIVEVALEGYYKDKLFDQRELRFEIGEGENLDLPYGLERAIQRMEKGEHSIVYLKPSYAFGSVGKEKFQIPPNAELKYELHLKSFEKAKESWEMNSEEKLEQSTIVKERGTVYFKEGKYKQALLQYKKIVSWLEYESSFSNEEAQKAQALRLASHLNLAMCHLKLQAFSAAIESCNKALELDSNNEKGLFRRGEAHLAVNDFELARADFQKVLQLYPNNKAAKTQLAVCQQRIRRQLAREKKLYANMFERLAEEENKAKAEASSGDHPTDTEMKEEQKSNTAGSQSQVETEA

Chain of proteins of HEK293T cells transiently overexpressing caspase-6 (Homo sapiens, UniProt P60174) (P60174 whole entry): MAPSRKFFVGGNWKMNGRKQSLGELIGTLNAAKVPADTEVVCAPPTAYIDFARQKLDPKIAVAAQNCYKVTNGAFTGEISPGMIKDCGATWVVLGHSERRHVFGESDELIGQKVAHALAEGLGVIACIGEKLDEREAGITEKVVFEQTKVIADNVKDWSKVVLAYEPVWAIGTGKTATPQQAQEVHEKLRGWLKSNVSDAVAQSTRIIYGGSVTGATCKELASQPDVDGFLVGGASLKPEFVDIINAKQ

Q: For `C#CCOc1ccc([C@@H]2C[C@@H](C(=O)Nc3ccc(OC(F)(F)F)cc3)CN(S(=O)(=O)C=C)C2)cc1` (relative stereo) [13-t], which enrich.exp.med [1] is on record?
A: 0.1365

Q: What about the enrich.exp.med [2] of the same compound?
A: -1.452

Q: What about the enrich.exp.med [3] of the same compound?
A: 2.108

Q: And the enrich.exp.med [4]?
A: -0.4177

Q: What about the enrich.exp.med ([5]; exp_ref Probe, analysis C6) of the same compound?
A: 0.7787

Q: And the enrich.exp.med.lin [5]?
A: 1.716

Q: What about the enrich.exp.med.log2 [5] of the same compound?
A: 0.7787

Q: And the enrich.exp.med ([6]; exp_ref Probe, analysis C6)?
A: -0.2903

Q: What about the enrich.exp.med.lin [6] of the same compound?
A: 0.8177

Q: What about the enrich.exp.med.log2 [6] of the same compound?
A: -0.2903

Q: What about the enrich.exp.med [7] of the same compound?
A: -0.321

Q: And the enrich.exp.med ([8]; exp_ref Probe, analysis C6)?
A: 0.8585

Q: What about the enrich.exp.med.lin [8] of the same compound?
A: 1.813

Q: And the enrich.exp.med.log2 [8]?
A: 0.8585

Q: And the enrich.exp.med [9]?
A: -0.0557

Q: What about the enrich.exp.med [10] of the same compound?
A: 0.8165
